Test system: obscurin-KD MCF10A cells
Assay: Sensitivity of obscurin-KD MCF10A cells to chemotherapeutic drugs (cell viability)
Assay type: cell-based, human
Conditions: compared to control cells
Excerpt: Moreover, loss of giant obscurins results in major cytoskeletal alterations leading to increased cell growth, motility and invasion. […] Thus, breast cancer cells may have different responses to cytoskeletal-targeting chemotherapies depending on the relative expression of giant obscurins.

Compound	sensitivity of obscurin-depleted MCF10A cells to the drug
COc1cc([C@@H]2c3cc4c(cc3[C@@H](O[C@@H]3O[C@@H]5CO[C@@H](C)O[C@H]5[C@H](O)[C@H]3O)[C@H]3COC(=O)[C@H]23)OCO4)cc(OC)c1O [etoposide]	reduced sensitivity
CC(=O)O[C@H]1C(=O)[C@@]2(C)[C@H]([C@H](OC(=O)c3ccccc3)[C@]3(O)C[C@H](OC(=O)[C@H](O)[C@@H](NC(=O)c4ccccc4)c4ccccc4)C(C)=C1C3(C)C)[C@]1(OC(C)=O)CO[C@@H]1C[C@@H]2O [paclitaxel]	reduced sensitivity
